Test results reported in PubChem BioAssay (NCI).
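Method: 48-hour compound exposure of cells in 96-well plates, five concentrations, linear interpolation of endpoints. TGI marks complete inhibition of growth.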

Columns and labels:
Experiment in all cases: growth of human tumour cells (NCI), 48 h
OVCAR-5 ovarian = tested on: OVCAR-5 ovarian
SK-MEL-28 melanoma = tested on: SK-MEL-28 melanoma
UO-31 renal = tested on: UO-31 renal
K-562 leukemia = tested on: K-562 leukemia
T-47D breast = tested on: T-47D breast
SNB-19 CNS = tested on: SNB-19 CNS
SF-268 CNS = tested on: SF-268 CNS
ACHN renal = tested on: ACHN renal
A549 NSCLC = tested on: A549 NSCLC
UACC-62 melanoma = tested on: UACC-62 melanoma
LOX IMVI melanoma = tested on: LOX IMVI melanoma
NCI-H522 lung = tested on: NCI-H522 lung
MDA-N = tested on: MDA-N
SW-620 colon = tested on: SW-620 colon
OVCAR-3 ovarian = tested on: OVCAR-3 ovarian
SNB-75 CNS = tested on: SNB-75 CNS
MCF7 breast = tested on: MCF7 breast

| SMILES | TGI (OVCAR-5 ovarian) | TGI (SK-MEL-28 melanoma) | TGI (UO-31 renal) | TGI (K-562 leukemia) | TGI (T-47D breast) | TGI (SNB-19 CNS) | TGI (SF-268 CNS) | TGI (ACHN renal) | TGI (A549 NSCLC) | TGI (UACC-62 melanoma) | TGI (LOX IMVI melanoma) | TGI (NCI-H522 lung) | TGI (MDA-N) | TGI (SW-620 colon) | TGI (OVCAR-3 ovarian) | TGI (SNB-75 CNS) | TGI (MCF7 breast) |
| --- | --- | --- | --- | --- | --- | --- | --- | --- | --- | --- | --- | --- | --- | --- | --- | --- | --- |
| N=c1nc(N)nc(N)n1-c1ccc(S(N)(=O)=O)cc1 | > 100 µM | > 100 µM | > 100 µM | > 100 µM | > 100 µM | > 100 µM | > 100 µM | > 100 µM | > 100 µM | > 100 µM | > 100 µM | > 100 µM | > 100 µM | > 100 µM | > 100 µM | – | – |
| CNC(=S)N/N=C(\C)c1ccc(OC)cc1O | > 100 µM | > 100 µM | > 100 µM | > 100 µM | > 100 µM | > 100 µM | > 100 µM | > 100 µM | > 100 µM | > 100 µM | > 100 µM | > 100 µM | > 100 µM | > 100 µM | > 100 µM | > 100 µM | – |
| CN(C)CCCNC(=O)c1cc(NC(=O)CCCn2c3ccccc3c3ccccc32)cn1C | > 100 µM | > 100 µM | > 100 µM | > 100 µM | 75.2 µM | > 100 µM | > 100 µM | > 100 µM | > 100 µM | > 100 µM | > 100 µM | – | > 100 µM | > 100 µM | > 100 µM | > 100 µM | > 100 µM |
| O=c1cc2oc3ccc4ccccc4c3cc-2c(=O)[nH]1 | 32.4 µM | 32.7 µM | 23.5 µM | 82.1 µM | – | 27.2 µM | 28.4 µM | 32 µM | 42.8 µM | 32.5 µM | 21 µM | 27.9 µM | 23.8 µM | 5.3 µM | 24.4 µM | – | 38.5 µM |
| Cc1nnc2nc(-c3ccc(Cl)cc3Cl)cc(-c3ccc(Cl)cc3)n12 | > 100 µM | 40.8 µM | > 100 µM | > 100 µM | > 100 µM | > 100 µM | > 100 µM | > 100 µM | > 100 µM | > 100 µM | > 100 µM | – | > 100 µM | > 100 µM | > 100 µM | – | > 100 µM |
| N#CC1(C#N)C(c2ccccc2)NC23CCCCC2C1(C#N)C(=O)N3 (centres undefined) | > 100 µM | > 100 µM | > 100 µM | > 100 µM | > 100 µM | > 100 µM | > 100 µM | > 100 µM | > 100 µM | > 100 µM | – | > 100 µM | > 100 µM | > 100 µM | > 100 µM | > 100 µM | > 100 µM |
| CN(C)c1ncc(-c2c[nH]c3ccccc23)nc1-c1c[nH]c2ccccc12 | 16.9 µM | 5.73 µM | 13.3 µM | 8.48 µM | 19.9 µM | 14.8 µM | 25 µM | 6.88 µM | 19.4 µM | 3.89 µM | 5.33 µM | – | 4.54 µM | 11.8 µM | 18.6 µM | 5.59 µM | 12.9 µM |
| COc1cccc(N2CCc3c(C)c(C#N)c4nc5ccccc5n4c32)c1 | > 100 µM | > 100 µM | > 100 µM | > 100 µM | – | > 100 µM | > 100 µM | > 100 µM | > 100 µM | > 100 µM | > 100 µM | > 100 µM | > 100 µM | > 100 µM | > 100 µM | > 100 µM | > 100 µM |
| COc1cc(C(CN)N(C)C)cc(OC)c1OC (centres undefined) | > 100 µM | > 100 µM | > 100 µM | > 100 µM | > 100 µM | > 100 µM | > 100 µM | > 100 µM | > 100 µM | > 100 µM | > 100 µM | > 100 µM | > 100 µM | > 100 µM | > 100 µM | – | > 100 µM |
| Cn1cc(C=C(C#N)C#N)c(=O)n(C)c1=O | > 100 µM | > 100 µM | > 100 µM | – | > 100 µM | > 100 µM | > 100 µM | > 100 µM | > 100 µM | > 100 µM | > 100 µM | > 100 µM | > 100 µM | > 100 µM | > 100 µM | > 100 µM | > 100 µM |
| CCOc1ccccc1N=NC1C(=O)N(C(=O)CC(=O)Nc2ccccc2Cl)N=C1C (centres undefined) | > 100 µM | > 100 µM | > 100 µM | – | > 100 µM | – | > 100 µM | > 100 µM | > 100 µM | > 100 µM | > 100 µM | > 100 µM | > 100 µM | > 100 µM | > 100 µM | > 100 µM | > 100 µM |
| Cc1nc(SCC(=O)Nc2ccccc2)c2sc(=S)n(-c3ccccc3)c2n1 | > 10 µM | > 10 µM | – | – | > 10 µM | > 10 µM | > 10 µM | > 10 µM | > 10 µM | > 10 µM | > 10 µM | > 10 µM | > 10 µM | > 10 µM | > 10 µM | > 10 µM | > 10 µM |
| C[C@H](C(=O)N1C(=O)O[C@@H](c2ccccc2)[C@H]1C)[C@H](c1ccccc1)N(Cc1ccccc1)OC(=O)c1ccccc1 | > 100 µM | > 100 µM | > 100 µM | > 100 µM | > 100 µM | > 100 µM | > 100 µM | > 100 µM | > 100 µM | > 100 µM | > 100 µM | > 100 µM | > 100 µM | > 100 µM | – | > 100 µM | > 100 µM |
| O=c1oc2ccccc2c(O)c1C(c1ccc([N+](=O)[O-])cc1)c1c(O)c2ccccc2oc1=O | – | > 100 µM | > 100 µM | – | > 100 µM | > 100 µM | > 100 µM | – | – | > 100 µM | > 100 µM | > 100 µM | > 100 µM | > 100 µM | > 100 µM | > 100 µM | – |
| COc1cccc(NC(=O)c2c(SC)n[nH]c2N)c1 | > 100 µM | > 100 µM | – | > 100 µM | – | > 100 µM | > 100 µM | > 100 µM | > 100 µM | > 100 µM | > 100 µM | > 100 µM | > 100 µM | > 100 µM | – | > 100 µM | > 100 µM |
